From US11872202B2, “Pleuromutilin cinnamic acid ester compounds with activities against antibiotic-resistant infections” (SHAANXI UNIVERSITY OF SCIENCE AND TECHNOLOGY, priority 2021, dated 2024) come the findings set out here.

Converted amounts (≈) assume the structure as drawn. Where two headings read alike, the source gives them in different places.

Holding throughout (type): cell-based
Series [1] concerns Methicillin-sensitive Staphylococcus epidermidis ATCC12228. In words: MIC, micro-broth dilution method. The settings on record: for MIC: Methicillin-sensitive Staphylococcus epidermidis ATCC12228, 37° C., 20-22 h, read-out: Minimum inhibitory concentration; for inhibitory effect compared with the three tested positive controls: methicillin-sensitive Staphylococcus epidermidis, statement in words from Table 1. The method, then: (§1) The minimum inhibitory concentration (MIC) of pleuromutilin cinnamate easters and their starting materials was tested by a micro-broth dilution method, with retamoline, vornimulin and tiamulin as positive controls.
(§2) The experimental strains included Gram-positive bacteria: Methicillin-sensitive Staphylococcus epidermidis ATCC12228, Staphylococcus aureus ATCC29213 and ATCC25923, and Methicillin-resistant Staphylococcus aureus ATCC33591; Gram-negative bacteria: Acinetobacter baumannii ATCC19606 and E. coli Bacillus ATCC25922 (the strains used were from the American type culture collection (ATCC)).

Series [2] has as its system Methicillin-resistant Staphylococcus aureus ATCC33591. In words: MIC, micro-broth dilution method. The settings on record: Methicillin-resistant Staphylococcus aureus ATCC33591; 37° C., 20-22 h; read-out: Minimum inhibitory concentration. As to the method:
as §1, §2

For series [3], the system named is Escherichia coli ATCC25922. In words: MIC, micro-broth dilution method. The settings on record: Escherichia coli ATCC25922; 37° C., 20-22 h; read-out: Minimum inhibitory concentration. As to the method:
as §1, §2

The subject of series [4] is Staphylococcus aureus ATCC29213. In words: MIC, micro-broth dilution method. The settings on record: Staphylococcus aureus ATCC29213; 37° C., 20-22 h; read-out: Minimum inhibitory concentration. The method, then: as §1, §2
Series [5] has as its system Staphylococcus aureus ATCC25923. In words: MIC, micro-broth dilution method. The settings on record: Staphylococcus aureus ATCC25923; 37° C., 20-22 h; read-out: Minimum inhibitory concentration. The method, then: as §1, §2
Series [6] concerns Acinetobacter baumannii ATCC19606. In words: MIC, micro-broth dilution method. The settings on record: for MIC: Acinetobacter baumannii ATCC19606, 37° C., 20-22 h, read-out: Minimum inhibitory concentration; for inhibition compared with tiamulin: Acinetobacter baumannii, statement in words from Table 1. The method, then: as §1, §2
Series [7] in a line: In vitro cytotoxicity, CCK-8 method. Conditions: human, read-out: median inhibitory concentration (IC50), cytotoxicity. The method, then:
The in vitro cytotoxicity of pleuromutilin easters was determined by a CCK-8 method (the kit used was purchased from Shanghai Xige Biotechnology Co., Ltd.). Take healthy HepG2, HEK293 and A549 cell culture fluids (the cells used were from the American type culture collection (ATCC), and the used cell culture fluids were purchased from Thermo Fisher Scientific (China) Co., Ltd.), inoculate in a sterile 96-well cell culture plate, 180 μL/well, ensure that the number of cells is 1*10^4/well, place in a 37° C. CO2 incubator with a volume fraction of 5%, and culture for 24 h until the cells completely adhered. Add the test and control solutions, 20 µL per well, set 6 duplicate wells in parallel, and incubate at 37° C. in a CO2 incubator with a volume fraction of 5% at 37° C. for 24 h, and observe the cells under a microscope. Add 20 μL of 5 g/L CCK-8 solution to each well, and continue to culture for 4 h. The culture was terminated, the culture medium in the wells was gently aspirated, 100 μL of dimethyl sulfoxide was added to each well, and the wells were shaken at low speed for 10 min on a shaker to fully dissolve the crystals. The absorbance value was measured, and the half inhibitory concentration (IC50) was then calculated. The cytotoxicity to HepG2, HEK293 and A549 cells was evaluated according to the half inhibitory concentration (IC50).

In series [8] the test system is the different bacteria tested. In words: MIC, micro-broth dilution method, overall comparison over all strains. Conditions: statement in words from Table 1. As to the method: as §1, §2

For `C=C[C@]1(C)C[C@@H](OC(=O)COC(=O)/C=C/c2cccc(C#N)c2)[C@]2(C)[C@H](C)CC[C@]3(CCC(=O)[C@H]32)[C@@H](C)[C@@H]1O` [Compound 5, (E)-2-(((3aR,4R,5R,8S,9R,12R)-8-hydroxy-4,7,9,12-tetramethyl-3-oxo-7-vinyldecahydro-4,9a-propanocyclopenta[8]annulen-5-yl)oxy)-2-oxoethyl 3-(3-cyanophenyl)acrylate], the MIC in series [1] was 2 µg/mL (≈ 3.75 µM); in series [2] it was 16 µg/mL (≈ 30 µM); in series [3], 64 µg/mL (≈ 120 µM); in series [4], 8 µg/mL (≈ 15 µM); in series [5] it was 2 µg/mL (≈ 3.75 µM); in series [6], 128 µg/mL (≈ 240 µM). Besides, the “inhibitory effect compared with the three tested positive controls” value in series [1] is given as “better than that of the positive controls”. In addition, the results for the IC50 at 24 h in series [7] (A549 cells), in series [7] (HEK293 cells) and in series [7] (HepG2 cells) were more than 200 µM, 29.2 µM and 78.5 µM, respectively.

With `C=C[C@]1(C)C[C@@H](OC(=O)COC(=O)/C=C/c2ccc(N(C)C)cc2)[C@]2(C)[C@H](C)CC[C@]3(CCC(=O)[C@H]32)[C@@H](C)[C@@H]1O` [Compound 10, (E)-2-(((3aR,4R,5R,8S,9R,12R)-8-hydroxy-4,7,9,12-tetramethyl-3-oxo-7-vinyldecahydro-4,9a-propanocyclopenta[8]annulen-5-yl)oxy)-2-oxoethyl 3-(4-(dimethylamino)phenyl)acrylate], the MIC in series [1] was 1 µg/mL (≈ 1.81 µM); in series [2], 2 µg/mL (≈ 3.63 µM); in series [3], 16 µg/mL (≈ 29 µM); in series [4] it was 2 µg/mL (≈ 3.63 µM); in series [5], 1 µg/mL (≈ 1.81 µM); in series [6], 32 µg/mL (≈ 58 µM). Further, in series [1], the “inhibitory effect compared with the three tested positive controls” value is “better than that of the positive controls”. Further, in series [6], the “inhibition compared with tiamulin” value was “as much as tiamulin”. The “inhibitory activity compared with the three tested positive controls” value in series [8] is reported as “better or equal to that of the three tested positive controls”. The IC50 at 24 h was more than 200 µM in series [7] (A549 cells), 34.6 µM in series [7] (HEK293 cells) and more than 200 µM in series [7] (HepG2 cells).

`C=C[C@]1(C)C[C@@H](OC(=O)COC(=O)/C=C/c2ccc(OC)cc2)[C@]2(C)[C@H](C)CC[C@]3(CCC(=O)[C@H]32)[C@@H](C)[C@@H]1O` [Compound 4, (E)-2-(((3aR,4R,5R,8S,9R,12R)-8-hydroxy-4,7,9,12-tetramethyl-3-oxo-7-vinyldecahydro-4,9a-propanocyclopenta[8]annulen-5-yl)oxy)-2-oxoethyl 3-(4-methoxyphenyl)acrylate]: the MIC is 2 µg/mL (≈ 3.71 µM) in series [1]; 16 µg/mL (≈ 29.7 µM) in series [2]; 32 µg/mL (≈ 59.4 µM) in series [3]; 8 µg/mL (≈ 14.9 µM) in series [4]; 4 µg/mL (≈ 7.43 µM) in series [5]; more than 256 µg/mL in series [6]. Further, the “inhibitory effect compared with the three tested positive controls” value in series [1] is “better than that of the positive controls”. Further, the IC50 at 24 h came out at 50.8 µM in series [7] (A549 cells), 90.2 µM in series [7] (HEK293 cells) and 83.7 µM in series [7] (HepG2 cells).

Consider `C=C[C@]1(C)C[C@@H](OC(=O)COC(=O)/C=C/c2ccc([N+](=O)[O-])cc2)[C@]2(C)[C@H](C)CC[C@]3(CCC(=O)[C@H]32)[C@@H](C)[C@@H]1O` [Compound 1, (E)-2-(((3aR,4R,5R,8S,9R,12R)-8-hydroxy-4,7,9,12-tetramethyl-3-oxo-7-vinyldecahydro-4,9a-propanocyclopenta[8]annulen-5-yl)oxy)-2-oxoethyl 3-(4-nitrophenyl)acrylate], for which the MIC in series [1] worked out at 2 µg/mL (≈ 3.61 µM); in series [2] it was 4 µg/mL (≈ 7.22 µM); in series [3], 32 µg/mL (≈ 57.8 µM); in series [4], 2 µg/mL (≈ 3.61 µM); in series [5] it was 8 µg/mL (≈ 14.4 µM); in series [6], 64 µg/mL (≈ 116 µM). For the same compound, the “inhibitory effect compared with the three tested positive controls” value in series [1] is on record as “better than that of the positive controls”. In addition, the “inhibition compared with tiamulin” value in series [6] is “as much as tiamulin”. Moreover, the IC50 at 24 h in series [7] (A549 cells), in series [7] (HEK293 cells) and in series [7] (HepG2 cells) was more than 200 µM throughout.

On to `C=C[C@]1(C)C[C@@H](OC(=O)CSCCN(CC)CC)[C@]2(C)[C@H](C)CC[C@]3(CCC(=O)[C@H]32)[C@@H](C)[C@@H]1O` [Tiamulin, reference compound], for which the MIC in series [1] amounted to 16 µg/mL (≈ 32.4 µM); in series [2], 128 µg/mL (≈ 259 µM); in series [3], 128 µg/mL (≈ 259 µM); in series [4], 256 µg/mL (≈ 518 µM); in series [5] it was 64 µg/mL (≈ 130 µM); in series [6], 64 µg/mL (≈ 130 µM). Moreover, the results for the IC50 at 24 h in series [7] (A549 cells), in series [7] (HEK293 cells) and in series [7] (HepG2 cells) were more than 200 µM, 84.9 µM and 27.1 µM, respectively.
